Measured values reported in publication PMC6326728, “eIF2B activator prevents neurological defects caused by a chronic integrated stress response” (eLife, 2019).

Columns and labels:
Test in all cases: biochemical
Set-up in all cases: CEREP panel radioligand binding displacement, % inhibition of control specific binding by 10 uM 2BAct
5-HT transporter (h) = target: T1, 5-HT transporter (h) (Homo sapiens, UniProt P31645); settings: Type=Antagonist radioligand; read-out: % inhibition of Control specific binding
T1 construct: gene SLC6A4
Method: (§1) Supplementary file elife-42940-supp1.xlsx: Supplementary file 1. (A) Binding of 2BAct at 10 μM to the CEREP panel of receptors/enzymes/ion channels. Compound binding was calculated as a % inhibition of the binding of a radioactively labeled ligand specific for each target. Results showing inhibition or stimulation higher than 50% are considered to represent significant effects of the test compound. (B) Pharmacokinetic data from 2BAct dosing in mice. (C) GO Biological Processes identified by enrichment analysis of RNA-seq data. (D) List of genes used for enrichment analysis of scRNA-seq data.

5-HT1A (h) = target: T2, 5-HT1A (h) (Homo sapiens, UniProt P08908); settings: Type=Agonist radioligand; read-out: % inhibition of Control specific binding
T2 construct: gene HTR1A
Method: as §1

5-HT2A (h) = target: T3, 5-HT2A (h) (Homo sapiens, UniProt P28223); settings: Type=Antagonist radioligand; read-out: % inhibition of Control specific binding
T3 construct: gene HTR2A
Method: as §1

5-HT2B (h) = target: T4, 5-HT2B (h) (Homo sapiens, UniProt P41595); settings: Type=Agonist radioligand; read-out: % inhibition of Control specific binding
T4 construct: gene HTR2B
Method: as §1

A1 (h) = target: T5, A1 (h) (Homo sapiens, UniProt P30542); settings: Type=Antagonist radioligand; read-out: % inhibition of Control specific binding
T5 construct: gene ADORA1
Method: as §1

A2a (h) = target: T6, A2a (h) (Homo sapiens, UniProt P29274); settings: Type=Agonist radioligand; read-out: % inhibition of Control specific binding
T6 construct: gene ADORA2A
Method: as §1

AR (h) = AR (h) (Homo sapiens, UniProt P10275); settings: Type=Agonist radioligand; read-out: % inhibition of Control specific binding
Method: as §1

AT2 (h) = target: T7, AT2 (h) (Homo sapiens, UniProt P50052); settings: Type=Agonist radioligand; read-out: % inhibition of Control specific binding
T7 construct: gene AGTR2
Method: as §1

BZD (peripheral) = target: T8, BZD (peripheral) (Rattus norvegicus, UniProt P16257); settings: Type=Antagonist radioligand; read-out: % inhibition of Control specific binding
T8 construct: gene Tspo; peripheral
Method: as §1

CCK1(CCKA) (h) = target: T9, CCK1(CCKA) (h) (Homo sapiens, UniProt P32238); settings: Type=Agonist radioligand; read-out: % inhibition of Control specific binding
T9 construct: gene CCKAR
Method: as §1

D1 (h) = target: T10, D1 (h) (Homo sapiens, UniProt P21728); settings: Type=Antagonist radioligand; read-out: % inhibition of Control specific binding
T10 construct: gene DRD1
Method: as §1

EP2 (h) = target: T11, EP2 (h) (Homo sapiens, UniProt P43116); settings: Type=Agonist radioligand; read-out: % inhibition of Control specific binding
T11 construct: gene PTGER2
Method: as §1

ET-B (h) = target: T12, ET-B (h) (Homo sapiens, UniProt P24530); settings: Type=Agonist radioligand; read-out: % inhibition of Control specific binding
T12 construct: gene EDNRB
Method: as §1

Estrogen ER alpha (h) = target: T13, Estrogen ER alpha (h) (Homo sapiens, UniProt P03372); settings: Type=Agonist radioligand; read-out: % inhibition of Control specific binding
T13 construct: gene ESR1
Method: as §1

GABA-A1 (h) (a1, b2, g2) = target: T14, GABA-A1 (h) (a1, b2, g2) (Homo sapiens, UniProt P14867+P18507+P47870); settings: Type=Agonist radioligand; read-out: % inhibition of Control specific binding
T14 construct: gene GABRA1; a1, b2, g2
Method: as §1

M1 (h) = target: T15, M1 (h) (Homo sapiens, UniProt P11229); settings: Type=Antagonist radioligand; read-out: % inhibition of Control specific binding
T15 construct: gene CHRM1
Method: as §1

MAO-A = target: T16, MAO-A (Rattus norvegicus, UniProt P21396); settings: Type=Antagonist radioligand; read-out: % inhibition of Control specific binding
T16 construct: gene Maoa
Method: as §1

MT2 (ML1B) (h) = target: T17, MT2 (ML1B) (h) (Homo sapiens, UniProt P49286); settings: Type=Agonist radioligand; read-out: % inhibition of Control specific binding
T17 construct: gene MTNR1B
Method: as §1

VPAC1 (VIP1) (h) = target: T18, VPAC1 (VIP1) (h) (Homo sapiens, UniProt P32241); settings: Type=Agonist radioligand; read-out: % inhibition of Control specific binding
T18 construct: gene VIPR1
Method: as §1

m (MOP) (h) = target: T19, m (MOP) (h) (Homo sapiens, UniProt P35372); settings: Type=Agonist radioligand; read-out: % inhibition of Control specific binding
T19 construct: gene OPRM1
Method: as §1

[1] = target: T20, norepinephrine transporter (h) (Homo sapiens, UniProt P23975); settings: Type=Antagonist radioligand; read-out: % inhibition of Control specific binding
T20 construct: gene SLC6A2
Method: as §1

T17 sequence (P49286 whole entry): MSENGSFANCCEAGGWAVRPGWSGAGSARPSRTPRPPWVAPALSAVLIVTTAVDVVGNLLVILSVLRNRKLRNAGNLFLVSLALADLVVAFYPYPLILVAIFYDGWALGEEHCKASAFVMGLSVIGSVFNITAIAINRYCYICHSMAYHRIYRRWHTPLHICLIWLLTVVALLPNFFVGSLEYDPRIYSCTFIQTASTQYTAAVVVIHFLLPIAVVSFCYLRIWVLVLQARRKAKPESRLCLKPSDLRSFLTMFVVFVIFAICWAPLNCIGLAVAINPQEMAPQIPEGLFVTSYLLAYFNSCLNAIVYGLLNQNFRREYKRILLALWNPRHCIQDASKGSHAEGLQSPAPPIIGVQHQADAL
T3 sequence (P28223 whole entry): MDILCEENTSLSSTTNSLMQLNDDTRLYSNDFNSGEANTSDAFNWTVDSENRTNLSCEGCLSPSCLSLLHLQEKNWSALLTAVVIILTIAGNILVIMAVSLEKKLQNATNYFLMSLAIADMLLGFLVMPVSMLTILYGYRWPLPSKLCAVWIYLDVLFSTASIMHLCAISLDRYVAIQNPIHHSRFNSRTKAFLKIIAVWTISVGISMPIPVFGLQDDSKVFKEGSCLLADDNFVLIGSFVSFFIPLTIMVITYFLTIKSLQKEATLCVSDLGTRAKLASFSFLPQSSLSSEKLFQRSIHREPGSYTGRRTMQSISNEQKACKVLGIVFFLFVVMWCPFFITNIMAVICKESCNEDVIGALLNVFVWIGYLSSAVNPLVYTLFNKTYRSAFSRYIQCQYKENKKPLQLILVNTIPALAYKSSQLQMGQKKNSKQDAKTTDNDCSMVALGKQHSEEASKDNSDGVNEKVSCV
T18 sequence (P32241 whole entry): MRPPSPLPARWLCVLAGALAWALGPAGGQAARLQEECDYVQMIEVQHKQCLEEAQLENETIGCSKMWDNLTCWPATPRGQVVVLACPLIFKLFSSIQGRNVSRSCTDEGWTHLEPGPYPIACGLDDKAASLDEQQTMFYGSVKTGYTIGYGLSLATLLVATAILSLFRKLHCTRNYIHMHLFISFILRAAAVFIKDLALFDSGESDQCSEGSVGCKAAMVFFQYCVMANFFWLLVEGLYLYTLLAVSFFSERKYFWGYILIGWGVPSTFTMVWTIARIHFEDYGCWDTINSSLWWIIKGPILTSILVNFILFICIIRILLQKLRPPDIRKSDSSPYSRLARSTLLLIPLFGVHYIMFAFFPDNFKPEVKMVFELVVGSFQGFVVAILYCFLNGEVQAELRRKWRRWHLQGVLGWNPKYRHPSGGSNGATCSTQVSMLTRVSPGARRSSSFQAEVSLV
T19 sequence (P35372 whole entry): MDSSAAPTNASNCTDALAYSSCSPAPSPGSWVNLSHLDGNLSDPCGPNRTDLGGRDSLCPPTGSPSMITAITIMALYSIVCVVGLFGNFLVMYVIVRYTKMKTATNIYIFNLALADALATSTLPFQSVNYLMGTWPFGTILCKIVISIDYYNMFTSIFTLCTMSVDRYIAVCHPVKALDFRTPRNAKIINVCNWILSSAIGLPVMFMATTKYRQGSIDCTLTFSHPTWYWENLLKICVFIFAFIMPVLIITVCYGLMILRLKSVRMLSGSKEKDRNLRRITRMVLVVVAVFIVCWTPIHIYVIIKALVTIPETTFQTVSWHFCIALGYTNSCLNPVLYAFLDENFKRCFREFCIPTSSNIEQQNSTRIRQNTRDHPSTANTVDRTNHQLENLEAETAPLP
T1 sequence (P31645 whole entry): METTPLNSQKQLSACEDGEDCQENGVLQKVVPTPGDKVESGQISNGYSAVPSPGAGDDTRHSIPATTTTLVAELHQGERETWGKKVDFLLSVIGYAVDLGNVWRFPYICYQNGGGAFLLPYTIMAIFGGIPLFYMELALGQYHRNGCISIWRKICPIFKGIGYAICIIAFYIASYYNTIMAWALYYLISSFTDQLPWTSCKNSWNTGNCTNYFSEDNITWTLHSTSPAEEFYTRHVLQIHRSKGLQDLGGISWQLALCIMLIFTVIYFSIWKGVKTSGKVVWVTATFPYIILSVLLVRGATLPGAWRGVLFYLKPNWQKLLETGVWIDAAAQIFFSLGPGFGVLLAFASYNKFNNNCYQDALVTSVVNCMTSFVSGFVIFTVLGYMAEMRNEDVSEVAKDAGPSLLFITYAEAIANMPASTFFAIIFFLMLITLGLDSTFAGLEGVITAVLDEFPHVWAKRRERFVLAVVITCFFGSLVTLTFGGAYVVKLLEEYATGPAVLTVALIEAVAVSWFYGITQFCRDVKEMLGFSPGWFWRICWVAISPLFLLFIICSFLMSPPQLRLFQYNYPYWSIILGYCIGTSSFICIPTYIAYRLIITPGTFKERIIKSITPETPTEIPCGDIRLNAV
T7 sequence (P50052 whole entry): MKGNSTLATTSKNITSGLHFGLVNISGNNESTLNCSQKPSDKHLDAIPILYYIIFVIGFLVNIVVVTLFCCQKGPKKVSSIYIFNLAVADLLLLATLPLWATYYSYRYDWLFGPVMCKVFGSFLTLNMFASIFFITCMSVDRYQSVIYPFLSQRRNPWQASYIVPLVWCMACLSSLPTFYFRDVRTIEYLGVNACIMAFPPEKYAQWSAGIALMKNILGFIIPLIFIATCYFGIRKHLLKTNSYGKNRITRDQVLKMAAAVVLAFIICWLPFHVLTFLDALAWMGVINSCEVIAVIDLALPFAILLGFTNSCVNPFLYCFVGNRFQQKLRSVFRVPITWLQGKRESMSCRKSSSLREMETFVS
T10 sequence (P21728 whole entry): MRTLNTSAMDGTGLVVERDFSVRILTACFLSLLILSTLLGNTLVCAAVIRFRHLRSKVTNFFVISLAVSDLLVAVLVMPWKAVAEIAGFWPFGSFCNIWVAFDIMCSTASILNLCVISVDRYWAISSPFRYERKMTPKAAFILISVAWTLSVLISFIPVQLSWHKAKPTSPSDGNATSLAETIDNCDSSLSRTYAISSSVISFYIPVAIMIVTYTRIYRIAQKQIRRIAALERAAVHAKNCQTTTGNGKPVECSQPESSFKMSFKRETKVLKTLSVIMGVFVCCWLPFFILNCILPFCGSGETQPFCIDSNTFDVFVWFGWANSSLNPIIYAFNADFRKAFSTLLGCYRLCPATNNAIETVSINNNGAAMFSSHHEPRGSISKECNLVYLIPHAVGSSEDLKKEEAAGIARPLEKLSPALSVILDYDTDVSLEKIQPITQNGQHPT
T5 sequence (P30542 whole entry): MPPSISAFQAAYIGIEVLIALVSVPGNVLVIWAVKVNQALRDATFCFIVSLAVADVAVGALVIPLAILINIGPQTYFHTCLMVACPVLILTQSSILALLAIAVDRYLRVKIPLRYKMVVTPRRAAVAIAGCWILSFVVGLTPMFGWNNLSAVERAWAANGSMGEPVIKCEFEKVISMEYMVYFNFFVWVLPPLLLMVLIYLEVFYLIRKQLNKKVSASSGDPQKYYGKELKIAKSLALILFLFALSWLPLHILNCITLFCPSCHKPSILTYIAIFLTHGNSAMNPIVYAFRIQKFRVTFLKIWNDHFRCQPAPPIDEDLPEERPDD
T14 sequence (P14867 whole entry): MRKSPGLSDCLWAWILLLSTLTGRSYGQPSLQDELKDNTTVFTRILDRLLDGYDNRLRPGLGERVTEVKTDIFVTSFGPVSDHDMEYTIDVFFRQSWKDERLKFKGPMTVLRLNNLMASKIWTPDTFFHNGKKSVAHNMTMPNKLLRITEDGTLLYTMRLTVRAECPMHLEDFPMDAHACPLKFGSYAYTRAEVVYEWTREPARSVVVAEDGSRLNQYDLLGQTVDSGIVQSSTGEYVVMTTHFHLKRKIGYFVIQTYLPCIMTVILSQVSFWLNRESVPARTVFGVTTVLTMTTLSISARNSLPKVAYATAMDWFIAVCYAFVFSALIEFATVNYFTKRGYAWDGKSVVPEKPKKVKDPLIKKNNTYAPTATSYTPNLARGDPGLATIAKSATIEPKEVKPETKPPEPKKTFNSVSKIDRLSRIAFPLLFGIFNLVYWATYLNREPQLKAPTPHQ
T14 sequence (P18507 whole entry): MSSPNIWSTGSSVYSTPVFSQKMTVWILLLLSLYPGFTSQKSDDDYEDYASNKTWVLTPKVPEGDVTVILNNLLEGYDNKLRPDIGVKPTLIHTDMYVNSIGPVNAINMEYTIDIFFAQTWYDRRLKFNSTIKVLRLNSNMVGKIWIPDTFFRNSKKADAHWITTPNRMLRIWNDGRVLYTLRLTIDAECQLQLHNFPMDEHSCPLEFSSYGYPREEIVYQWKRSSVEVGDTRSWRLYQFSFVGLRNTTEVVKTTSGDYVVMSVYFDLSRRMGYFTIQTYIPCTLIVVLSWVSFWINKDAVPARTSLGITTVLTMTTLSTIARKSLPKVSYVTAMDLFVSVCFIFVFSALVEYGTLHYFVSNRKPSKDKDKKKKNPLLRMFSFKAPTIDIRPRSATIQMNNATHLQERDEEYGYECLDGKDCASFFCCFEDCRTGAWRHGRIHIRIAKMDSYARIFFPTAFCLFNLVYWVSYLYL
T14 sequence (P47870 whole entry): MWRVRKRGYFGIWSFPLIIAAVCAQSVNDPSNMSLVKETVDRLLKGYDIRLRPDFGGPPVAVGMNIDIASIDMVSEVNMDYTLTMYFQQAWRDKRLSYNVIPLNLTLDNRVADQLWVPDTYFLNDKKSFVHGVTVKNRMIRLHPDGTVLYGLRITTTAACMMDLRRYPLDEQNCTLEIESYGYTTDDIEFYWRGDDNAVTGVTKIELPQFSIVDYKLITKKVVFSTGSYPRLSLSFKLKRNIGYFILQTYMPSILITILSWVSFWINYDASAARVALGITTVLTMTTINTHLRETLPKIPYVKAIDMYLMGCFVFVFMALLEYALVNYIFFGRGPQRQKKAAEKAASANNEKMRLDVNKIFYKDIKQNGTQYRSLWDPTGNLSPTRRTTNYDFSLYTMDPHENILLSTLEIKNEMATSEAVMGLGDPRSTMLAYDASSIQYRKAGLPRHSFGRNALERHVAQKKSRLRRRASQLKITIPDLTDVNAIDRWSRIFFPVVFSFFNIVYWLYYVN

SMILES: O=C(COc1ccc(Cl)c(F)c1)NC12CC(NC(=O)c3cnc(C(F)F)cn3)(C1)C2 [2BAct]
- inhibition at 10 µM (5-HT transporter (h)): 7.9%
- inhibition at 10 µM (5-HT1A (h)): 15.8%
- inhibition at 10 µM (5-HT2A (h)): 10.8%
- inhibition at 10 µM (5-HT2B (h)): 8.6%
- inhibition at 10 µM (A1 (h)): 2.1%
- inhibition at 10 µM (A2a (h)): 24.8%
- inhibition at 10 µM (AR (h)): -0.2%
- inhibition at 10 µM (AT2 (h)): 0.2%
- inhibition at 10 µM (BZD (peripheral)): 36.2%
- inhibition at 10 µM (CCK1(CCKA) (h)): 5.2%
- inhibition at 10 µM (D1 (h)): 5.9%
- inhibition at 10 µM (EP2 (h)): -4%
- inhibition at 10 µM (ET-B (h)): 6%
- inhibition at 10 µM (Estrogen ER alpha (h)): -7.7%
- inhibition at 10 µM (GABA-A1 (h) (a1, b2, g2)): -19.5%
- inhibition at 10 µM (M1 (h)): 2.6%
- inhibition at 10 µM (MAO-A): 10.2%
- inhibition at 10 µM (MT2 (ML1B) (h)): -2%
- inhibition at 10 µM (VPAC1 (VIP1) (h)): -9.7%
- inhibition at 10 µM (m (MOP) (h)): 3%
- inhibition at 10 µM [1]: 61%
